The values that follow come from PubChem BioAssay (NCI).

Holding throughout (assay): inhibition of tumour cell growth, NCI panel, 48 h
Test [1] concerns UACC-62 melanoma.
Test [2] deals with SNB-19 CNS.
Test [3] concerns UO-31 renal.
Test [4] relates to SK-MEL-5 melanoma.
Test [5] relates to COLO 205 colon.
The subject of test [6] is M14 melanoma.
The subject of test [7] is HT29 colon.
Test [8] concerns SF-295 CNS.
Test [9] relates to LOX IMVI melanoma.
Test [10] relates to MDA-MB-435.

Molecules are shown by their SMILES.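 Method: 48-hour compound exposure of cells in 96-well plates, five concentrations, linear interpolation of endpoints. The concentration for 50% growth inhibition is given as GI50. Definition used: TGI = concentration required for complete inhibition of growth.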

For `Cc1c(Cl)c(C)c(Cl)c(O)c1Cl`, the TGI in [1] was 37.4 µM; in [2], over 100 µM; in test [3], 42.6 µM; in [4], 35.9 µM; in test [5] it was over 100 µM; in [6] it was 49.1 µM. Also, the TGI is over 100 µM in test [7], over 100 µM in test [8], over 100 µM in [9] and 60.7 µM in test [10].
Consider `COc1ncc(-c2ccc3nccc(C#CCCCCC(=O)NO)c3c2)cc1NS(=O)(=O)c1ccc(F)cc1F`, for which the GI50 is under 0.0195 µM in test [1]; 0.147 µM in test [2]; 0.0737 µM in test [3]; 0.0801 µM in test [4]; 0.0897 µM in [5]; 0.148 µM in test [6]. The GI50 is 0.055 µM in [7], 0.0701 µM in test [8], 0.0968 µM in test [9] and 0.132 µM in test [10]. For the same molecule, the TGI in test [2] worked out at 5.98 µM; in test [3], 4 µM; in test [4], 1.34 µM; in test [5] it was 2.18 µM; in test [6], 3.62 µM; in test [7], 10.5 µM. Further, the values for the TGI in test [8], in test [9] and in test [10] were 2.03 µM, 1.9 µM and 4.83 µM, respectively.
As to `CCn1ncc(N=O)c1N`, the TGI in test [1], in [2], in test [3], in test [4], in test [5] and in test [6] was over 100 µM each time. Further, the TGI in test [7], in test [8], in test [9] and in test [10] was over 100 µM each time.
For the molecule `CCN(CC)CC(O)c1cc(-c2ccc(Cl)cc2)nc2c(C)c(Cl)ccc12` (centres undefined), the GI50 in [1] was 1.84 µM; in test [2] it was 1.86 µM; in [3] it was 0.549 µM; in test [4] it was 1.7 µM; in [5] it was 1.77 µM; in test [6], 1.91 µM. The GI50 in [7] was 1.55 µM; in test [8], 1.86 µM; in [9] it was 1.41 µM; in test [10], 1.74 µM. Besides, the TGI in test [1] came to 3.39 µM; in test [2] it was 3.44 µM; in [3] it was 2.16 µM; in [4] it was 3.11 µM; in test [5] it was 3.35 µM; in test [6], 3.48 µM. Further, the TGI in [7] came to 2.94 µM; in [8], 3.5 µM; in test [9], 2.77 µM; in test [10], 3.29 µM.
Consider `Nc1nc(N)c2c(n1)CCC(S(=O)(=O)c1ccc3ccccc3c1)C2` (centres undefined), for which the GI50 in test [1] was 0.678 µM. For the same molecule, the TGI in [1] is over 100 µM; in test [2] it was over 85.2 µM; in [3], over 75.3 µM; in test [4] it was 19.2 µM; in [5], 34.5 µM; in [6], 61 µM. Besides, the TGI in test [7] is over 51.2 µM; in test [8], over 100 µM; in [9] it was over 100 µM; in test [10], over 100 µM.
Turning to `COc1cc2c(cc1OCCCN1CCN(C(=S)SCCC(C#N)(c3ccccc3)c3ccccc3)CC1)N=C[C@@H]1CCCN1C2=O`, the GI50 in test [1] is 1.13 µM; in [2] it was 2.19 µM; in [3], 1.1 µM; in [4] it was 1.31 µM; in test [5], 1.3 µM; in [6], 1.17 µM. For the same molecule, the GI50 in test [7] was 0.944 µM; in test [8] it was 1.11 µM; in [9], 0.721 µM; in test [10] it was 0.555 µM. Further, the TGI in test [1] was 2.38 µM; in test [3] it was 2.32 µM; in [4], 2.75 µM; in test [5], 2.78 µM; in test [6], 2.67 µM; in test [7], over 20.7 µM. Further, the TGI stood at 3.81 µM in test [8], 2.03 µM in [9] and 2.94 µM in test [10].
Consider `C[C@]12CC[C@@H]3c4ccc(OC(=O)N(CCCl)CCCl)cc4CC[C@H]3[C@@H]1CC[C@@H]2OP(=O)(O)O`, for which the GI50 in test [1] is 22.9 µM; in [2], 28.5 µM; in test [3], 79.9 µM; in [4] it was 37.7 µM; in test [5], 57.8 µM; in [6], 37.7 µM. For the same molecule, the GI50 was 33.7 µM in [7], 12.5 µM in test [8], 46.2 µM in test [9] and 15.6 µM in [10]. The TGI is over 72.5 µM in [1]; over 57.8 µM in test [2]; over 100 µM in test [3]; over 100 µM in test [4]; over 100 µM in [5]; over 100 µM in test [6]. Moreover, the TGI in test [7] was over 100 µM; in [8], 32.5 µM; in test [9], over 100 µM; in [10] it was 50.4 µM.
In the case of `CC[C@@H](C)/C=C(C)/C=C/C(=O)c1c(O)c(-c2ccc(O)cc2)cn(OC2CC(=O)CCC(C)OC(=O)CC2O)c1=O` (some centres undefined), the GI50 in test [1] was 0.279 µM; in test [2], 0.554 µM; in [3], 0.255 µM; in [4], 0.271 µM; in test [5] it was 5.97 µM; in [6], 0.258 µM. Besides, the GI50 in test [7] is 3.47 µM; in test [8], 0.331 µM; in [9], 0.171 µM; in [10], 0.485 µM. For the same molecule, the TGI was 1.15 µM in test [1]; 14.9 µM in test [2]; 1.92 µM in [3]; 0.978 µM in [4]; 21.2 µM in [5]; 2.38 µM in [6]. In addition, the TGI in [7] came to 14.1 µM; in [8], 4.89 µM; in [9], 2.7 µM; in [10], 19 µM.
Consider `O=C(O)c1ccc(/C=N/N=C2c3ccccc3-c3ccccc32)cc1`, for which the TGI in [1], in test [2], in [3], in test [4], in test [5] and in [6] was over 100 µM throughout. For the same molecule, the TGI was over 100 µM in test [7], 32.6 µM in [8], over 100 µM in test [9] and over 100 µM in [10].
